According to patent US20250257071A9, “TRICYCLIC COMPOUND, METHOD FOR PREPARING SAME, AND USE THEREOF” (Sichuan Kelun-Biotech Biopharmaceutical Co., Ltd., priority 2021, published 2025):

Assays:
[1] = target: human TLR8 (Homo sapiens (Human), UniProt Q9NR97); assay: Agonistic activity of compounds on HEK-Blue hTLR8 cells (QUANTI-Blue reporter, OD620); assay type: cell-based; settings: for Emax (OD620): OD620 at maximum activation effect
Experimental: • 1. HEK-Blue hTLR8 cells (Invivogen) were cultured in DMEM medium (Hyclone) containing 10% FBS heat-inactivated fetal bovine serum (Corning). On the day of detection, the cell state was observed under a microscope, the cells were collected and resuspended, and the cell concentration was adjusted after counting, 50 μL per well, the total amount of cells was 2×10^4, and the cells were inoculated in a 96-well plate. • 2. After the cells adhered to the wall overnight, 50 μL of the test compound at different concentrations was added to the well plate, so that the final concentrations were 100 μM, 25 μM, 6.25 μM, 1.56 μM, 0.39 μM, 0.10 μM, 0.02 μM, 0.006 μM, 0 μM, or 100 μM, 33.3 μM, 11.11 μM, 3.70 μM, 1.23 μM, 0.41 μM, 0.14 μM, 0.05 μM, 0 μM, and the final concentration of DMSO was 1%. The compound was incubated with the cells in a 37° C., 5% CO2 incubator for 20 hours. • 3. After the incubation, observation was performed under microscope to determine the maximum signal well, the state of the cells with the highest and lowest concentrations of the compound, and whether the compound will crystalize at high concentration. 10 μL of cell culture supernatant was transferred to a new 96-well transparent plate, added with 90 μL of QUANTI-Blue (Invivogen) detection reagent to each well, incubated at 37° C. for 3 hours, and OD620 was read with a multifunctional microplate reader (BMG LABTECH). • 4. EC50 was calculated by fitting with Graphpad Prism software log(agonist) vs. Response—Variable slope, and Emax was the OD620 at which the activation effect of the test compound reached the maximum.

[2] = target: human TLR7 (Homo sapiens (Human), UniProt Q9NYK1); assay: Agonistic activity of compounds on HEK-Blue hTLR7 cells (QUANTI-Blue reporter, OD620); assay type: cell-based; settings: for Emax (OD620): OD620 at maximum activation effect
Chain of human TLR7 (Q9NYK1 27-1049): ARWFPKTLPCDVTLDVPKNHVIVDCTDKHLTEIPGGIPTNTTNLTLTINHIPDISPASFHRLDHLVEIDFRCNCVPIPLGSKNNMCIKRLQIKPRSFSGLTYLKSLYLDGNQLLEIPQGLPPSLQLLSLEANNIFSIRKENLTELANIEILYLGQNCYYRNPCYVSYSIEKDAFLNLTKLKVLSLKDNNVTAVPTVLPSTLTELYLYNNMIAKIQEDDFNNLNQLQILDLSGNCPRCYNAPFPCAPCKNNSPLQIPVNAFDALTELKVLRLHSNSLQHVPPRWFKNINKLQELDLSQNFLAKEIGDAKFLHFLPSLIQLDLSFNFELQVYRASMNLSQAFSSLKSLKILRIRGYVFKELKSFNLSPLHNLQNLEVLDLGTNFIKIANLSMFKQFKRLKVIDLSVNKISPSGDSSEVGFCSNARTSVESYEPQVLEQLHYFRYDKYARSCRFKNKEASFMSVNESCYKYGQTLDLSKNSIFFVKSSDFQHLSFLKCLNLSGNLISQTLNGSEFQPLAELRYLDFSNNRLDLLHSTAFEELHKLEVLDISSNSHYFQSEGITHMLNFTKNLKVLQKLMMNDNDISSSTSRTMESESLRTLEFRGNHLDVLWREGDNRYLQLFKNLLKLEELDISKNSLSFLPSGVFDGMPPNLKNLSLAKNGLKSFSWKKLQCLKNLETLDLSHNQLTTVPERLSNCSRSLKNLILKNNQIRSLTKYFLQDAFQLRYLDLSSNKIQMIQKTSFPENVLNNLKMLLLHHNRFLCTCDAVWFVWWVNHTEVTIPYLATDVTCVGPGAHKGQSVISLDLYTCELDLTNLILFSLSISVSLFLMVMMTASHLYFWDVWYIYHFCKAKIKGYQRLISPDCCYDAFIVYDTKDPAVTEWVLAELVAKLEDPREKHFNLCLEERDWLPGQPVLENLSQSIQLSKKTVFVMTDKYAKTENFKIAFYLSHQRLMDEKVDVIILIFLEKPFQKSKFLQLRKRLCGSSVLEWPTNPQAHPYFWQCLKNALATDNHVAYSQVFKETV
Experimental: • 1. HEK-Blue hTLR7 cells (Invivogen) were cultured in DMEM medium (Hyclone) containing 10% FBS heat-inactivated fetal bovine serum (Corning). On the day of detection, the cell state was observed under a microscope, the cells were collected and resuspended, and the cell concentration was adjusted after counting, 50 μL per well, the total amount of cells was 2×10^4, and the cells were inoculated in a 96-well plate. • 2. After the cells adhered to the wall overnight, 50 μL of the test compound at different concentrations was added into the well plate, so that the final concentrations were 100 μM, 33.3 μM, 11.11 μM, 3.70 μM, 1.23 μM, 0.41 μM, 0.14 μM, 0.05 μM, 0 μM, and the final concentration of DMSO was 1%. The compound was incubated with the cells in a 37° C., 5% CO2 incubator for 20 h. • 3. After the incubation, observation under microscope was performed to determine the maximum signal well, the states of the cells with the highest and lowest concentrations of the compound, and whether the compound will crystalize at high concentration. 10 μL of cell culture supermatant was taken and transferred to a new 96-well transparent plate, 90 μL of QUANTI-Blue (Invivogen) detection reagent was added to each well, and incubated at 37° C. for 3 h, and OD620 was read with a multifunctional microplate reader (BMG LABTECH). • 4. EC50 was calculated by fitting with Graphpad Prism software log(agonist) vs. response—Variable slope, and Emax was the (D620 at which the activation effect of the test compound reached the maximum.

Chain of human TLR8 (Q9NR97 27-1041): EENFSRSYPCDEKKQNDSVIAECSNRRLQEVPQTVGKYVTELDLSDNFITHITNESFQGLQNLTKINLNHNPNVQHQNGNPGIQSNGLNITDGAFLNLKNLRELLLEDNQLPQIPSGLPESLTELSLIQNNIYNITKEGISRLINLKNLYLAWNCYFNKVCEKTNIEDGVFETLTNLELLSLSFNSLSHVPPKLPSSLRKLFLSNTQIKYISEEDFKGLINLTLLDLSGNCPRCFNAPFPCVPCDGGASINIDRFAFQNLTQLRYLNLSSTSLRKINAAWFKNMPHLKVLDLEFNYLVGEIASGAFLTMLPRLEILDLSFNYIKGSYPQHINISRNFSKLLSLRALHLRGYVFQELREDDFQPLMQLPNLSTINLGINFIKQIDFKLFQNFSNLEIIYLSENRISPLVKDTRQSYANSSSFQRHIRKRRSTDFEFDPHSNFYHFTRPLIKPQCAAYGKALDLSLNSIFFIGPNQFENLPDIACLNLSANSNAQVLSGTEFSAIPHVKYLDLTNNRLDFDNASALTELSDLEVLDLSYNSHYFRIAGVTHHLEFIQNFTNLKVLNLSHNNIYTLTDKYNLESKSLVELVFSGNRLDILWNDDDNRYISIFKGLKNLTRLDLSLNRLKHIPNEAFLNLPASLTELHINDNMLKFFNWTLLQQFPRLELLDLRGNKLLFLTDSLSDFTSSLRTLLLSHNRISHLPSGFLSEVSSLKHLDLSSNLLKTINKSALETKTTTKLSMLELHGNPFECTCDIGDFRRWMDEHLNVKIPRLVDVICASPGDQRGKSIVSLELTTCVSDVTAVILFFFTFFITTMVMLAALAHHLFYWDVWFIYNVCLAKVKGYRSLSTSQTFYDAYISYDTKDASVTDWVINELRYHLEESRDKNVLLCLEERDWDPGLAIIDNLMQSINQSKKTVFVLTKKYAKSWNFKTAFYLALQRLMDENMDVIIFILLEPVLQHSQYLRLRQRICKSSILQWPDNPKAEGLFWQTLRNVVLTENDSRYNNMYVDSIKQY

| activation effect on human TLR8 (in words) [1] | Emax (OD620) [1] | activation effect on human TLR7 (in words) [2] | Emax (OD620) [2] | Structure (SMILES) |
| --- | --- | --- | --- | --- |
| strong activation effect | 0.67 OD620 | strong activation effect | 1.46 OD620 | CCCCc1nc2c(N)nc3cc(C4CCNCC4)sc3c2n1CC1CCOCC1 [Compound 33, 2-butyl-7-(hexahydropyridin-4-yl)-1-(3,4,5,6-tetrahydro-2H-pyran-4-ylmethyl)thieno[3,2-b]imidazo[4,5-d]pyridine-4-amine] |
| strong activation effect | 1.86 OD620 | strong activation effect | 1.43 OD620 | CCCCc1nc2c(N)nc3cc(C)sc3c2n1CC1CCNCC1 [Compound 3, 2-butyl-7-methyl-1-(piperidin-4-ylmethyl)-1H-imidazo[4,5-d]thieno[3,2-b]pyridine-4-amine] |
| strong activation effect | 1.37 OD620 | strong activation effect | 1.36 OD620 | CCCCc1nc2c(N)nc3ccsc3c2n1CCCCN [Compound 2, 1-(4-aminobutyl)-2-butyl-1H-imidazo[4,5-d]thieno[3,2-b]pyridine-4-amine] |
| strong activation effect | 1.43 OD620 | strong activation effect | 1.36 OD620 | CCCCc1nc2c(N)nc3cc(C)sc3c2n1CCCCN [Compound 1, 1-(4-aminobutyl)-2-butyl-7-methyl-1H-imidazo[4,5-d]thieno[3,2-b]pyridine-4-amine] |
| strong activation effect | 1.11 OD620 | strong activation effect | 1.08 OD620 | CCCCc1nc2c(N)nc3cc(C4CCN(C)CC4)sc3c2[nH]1 [Compound 6, 2-butyl-7-(1-methylpiperidin-4-yl)-1H-imidazo[4,5-d]thieno[3,2-b]pyridine-4-amine] |
| strong activation effect | 0.84 OD620 | strong activation effect | 1.59 OD620 | CCCCc1nc2c(N)nc3ccsc3c2n1CC1CCN(C)CC1 [Compound 27, 2-butyl-1-[(1-methylhexahydropyridin-4-yl)methyl]thieno[3,2-b]imidazo[4,5-d]pyridine-4-amine] |
